pIC50: −log10 of the molar value.
What was measured:
[1] = tested on: IL-12-induced IFN-γ secretion in NK92 cells; experiment: Inhibition of IL-12-induced IFN-γ Secretion in NK92 Cells (ELISA); assay type: cell-based, human; conditions: Homo sapiens, 24 hours incubation, 8 concentration points, read-out: IC50 (NK92_IL12/IFNγ)
Description: Inhibition of IL-12-induced IFN-γ Secretion in NK92 Cells
The effect of the compounds of the present invention on IFN-γ secretion induced by IL-12 in NK92 cells was evaluated by an enzyme-linked immunosorbent assay (ELISA).
IL-12 receptor is mainly expressed in activated T-cells, NK cells (NK92 is a NK cell line), DC cells, and B-cells. When binding to IL-12, it activates JAK2/TYK2 signal transduction pathway within NK cells and T lymphocytes, thereby inducing secretion of IFN-γ.
The experimental method is generally described below:
The test compound was dissolved in DMSO to 2.5 mM, followed by a serial 4-fold dilution with DMSO to a minimum concentration of […]. Each concentration was further diluted 50-fold with an FBS-free MEMα medium (Gibco, 12561-056).
NK92 cells (Nanjing Cobioer, CBP60980) were cultured in a complete MEMα medium containing 12.5% FBS (Ausbian, VS500T), 12.5% horse serum (Gibco, 16050-122), 0.02 mM folic acid (Sigma, F8758), 0.2 mM inositol (Sigma, 17850), 0.55 mM β-mercaptoethanol (Gibco, 21985-023), 200 U/mL IL-2 (R&D Systems, 202-1L), and 100 U/mL penicillin (Thermofisher, 15140122). When covering 80-90% of the culture container surface, the cells were dispersed and plated on a 96-well plate (Thermofisher, 167425) with 100,000 cells per well (80 μL of the complete MEMα medium without IL-2). The 96-well plate was then incubated overnight in a 37° C./5% CO2 incubator.
After overnight incubation, 10 μL of the test compound and 10 μL of 50 ng/mL IL-12 (R & D Systems, 219-1L) were added to each well and mix gently, and the 96-well plate was incubated in the 37° C./5% CO2 incubator for additional 24 hours. The plate as centrifuged at 800 rpm for 10 minutes at room temperature and 50 μL of the supernatant from each well was transferred to another 96-well plate (Sigma, CLS3695) coated with anti-IFN-γ antibody. The amount of IFN-γ secretion was detected following the instruction from the Human IFN-γ DuoSet ELISA kit (R & D Systems, DY285B). In the experiment, the group with IL-12 and the test compound being replaced with the MEMα medium was the non-stimulated control group (100% inhibition), and the group with IL-12 and 0.2% DMSO was the stimulated group (0% inhibition). The percentage of inhibition on IL-12 induced IFN-γ secretion in NK-92 cells by the test compound was calculated using the following formula: Percentage of inhibition=100−100*(signalcompound−signalnon-stimulated control)/(signalstimulated control−signalnon-stimulated control)
The IC50 value of the test compound was calculated front 8 concentration points using the XLfit software (ID Business Solutions Ltd., UK) by the following formula: Y=Bottom+(Top−Bottom)/(1+10^((log IC50−X)×slope factor))
Where Y was the percentage of inhibition, X was the logarithm of the concentration of the test compound, Bottom was the bottom plateau value of the S-shaped curve, Top was the top plateau value of the S-shaped curve, and slope factor was the slope coefficient of the curve.

[2] = target: T1, human recombinant TYK2 protein (Homo sapiens, UniProt P29597); experiment: TYK2 Inhibition Assay (HTRF kinase assay); assay type: biochemical; conditions: human recombinant TYK2, 11.25 μM ATP substrate solution
T1 construct: purchased Carna Biosciences 08-147
T1 sequence (P29597 871-1187 limits assumed): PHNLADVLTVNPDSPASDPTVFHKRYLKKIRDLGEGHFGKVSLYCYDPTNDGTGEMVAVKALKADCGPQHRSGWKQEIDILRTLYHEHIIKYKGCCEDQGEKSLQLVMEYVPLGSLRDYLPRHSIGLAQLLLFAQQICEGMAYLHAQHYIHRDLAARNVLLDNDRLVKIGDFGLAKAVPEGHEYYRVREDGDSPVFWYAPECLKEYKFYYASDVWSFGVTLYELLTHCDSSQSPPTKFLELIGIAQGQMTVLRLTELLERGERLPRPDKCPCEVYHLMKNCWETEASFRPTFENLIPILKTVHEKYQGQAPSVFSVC
Procedure, shortened: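 Recombinant human TYK2 was pre-incubated 15 min at room temperature with compound, then reacted for 40 min with biotinylated tyrosine-kinase substrate and ATP (substrate solution 11.25 μM ATP, 0.5 μM substrate; 5 mM MgCl2, 0.01% Brij35). Phosphorylation was read by HTRF 665/620 ratio, normalised to no-enzyme and no-compound controls, and IC50 was fitted from 8 4-fold dilutions.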

[3] = target: T2, human recombinant JAK2 protein (Homo sapiens, UniProt O60674); experiment: JAK2 Inhibition Assay (HTRF kinase assay); assay type: biochemical; conditions: human recombinant JAK2, 2.5 μM ATP substrate solution
T2 construct: purchased Carna Biosciences 08-045
Procedure, shortened: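 Recombinant human JAK2 was preincubated 15 min at room temperature with compound in buffer containing 5 mM MgCl2, 1 mM DTT and 0.01% Brij35. Substrate solution (2.5 μM ATP, 0.25 μM biotinylated TK substrate) was then added for 30 min. Phosphorylation was detected by HTRF (665/620 nm ratio; no-enzyme = 100% inhibition), and IC50 was fitted from an 8-point, 4-fold series.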

T2 sequence (O60674 826-1132 limits assumed): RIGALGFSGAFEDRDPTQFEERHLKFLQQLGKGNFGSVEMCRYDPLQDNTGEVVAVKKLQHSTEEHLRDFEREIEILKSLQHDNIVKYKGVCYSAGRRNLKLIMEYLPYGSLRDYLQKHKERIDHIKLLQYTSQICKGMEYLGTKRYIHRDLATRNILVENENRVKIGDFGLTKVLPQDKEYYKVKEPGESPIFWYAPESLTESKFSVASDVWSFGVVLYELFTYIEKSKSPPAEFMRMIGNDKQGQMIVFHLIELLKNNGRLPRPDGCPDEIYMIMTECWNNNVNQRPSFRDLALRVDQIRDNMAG

Row | SMILES | pIC50 [1] | IC50 [2] | IC50 [3]
1 | CN1CCC(n2cc(Nc3ncc(Cl)c(N4C[C@]5(C)CN(C(=O)C6CC6)C[C@]5(C)C4)n3)cn2)CC1 [Compound 16, ((3aR,6aS)-5-(5-chloro-2-((1-(1-methylpiperidin-4-yl)-1H-pyrazol-4-yl)amino)pyrimidin-4-yl)-3a,6a-dimethylhexahydropyrrolo[3,4-c]pyrrol-2(1H)-yl)(cyclopropyl)methanone] | 6.00 | 1.2 nM | 0.9 nM
2 | CC(=O)N1C[C@@]2(C)CN(c3nc(Nc4cnn(C)c4)ncc3Cl)C[C@@]2(C)C1 [Compound 19, 1-((3aR,6aS)-5-(5-chloro-2-((1-methyl-1H-pyrazol-4-yl)amino)pyrimidin-4-yl)-3a,6a-dimethylhexahydropyrrolo[3,4-c]pyrrol-2(1H)-yl)ethan-1-one] | 6.15 | 14 nM | 8.8 nM
3 | Cn1cc(Nc2ncc(Cl)c(N3C[C@]4(C)CN(C(=O)[C@H]5CC5(F)F)C[C@]4(C)C3)n2)cn1 [Compound 21] | 6.31 | 2 nM | 10 nM
4 | C[C@@]12CN(C(=O)C3CC3)C[C@]1(C)CN(c1nc(Nc3cn[nH]c3)ncc1Cl)C2 [Compound 23, ((3aR,6aS)-5-(2-((1H-pyrazol-4-yl)amino)-5-chloropyrimidin-4-yl)-3a,6a-dimethylhexahydropyrrolo[3,4-c]pyrrol-2(1H)-yl)(cyclopropyl)methanone] | 6.26 | 1 nM | 3 nM
5 | Cn1cc(Nc2ncc(Cl)c(N3C[C@H]4CN(C(=O)CC#N)C[C@H]4C3)n2)cn1 [Compound 26, 3-((3aR,6aS)-5-(5-chloro-2-((1-methyl-H-pyrazol-4-yl)amino)pyrimidin-4-yl)hexahydropyrrolo[3,4-c]pyrrol-2(1H)-yl)-3-oxopropanenitrile] | 6.19 | 6.1 nM | 10 nM
6 | Cn1cc(Nc2ncc(Cl)c(N3C[C@H]4CN(C(=O)[C@@H]5CC5(F)F)C[C@H]4C3)n2)cn1 [Compound 27, ((3aR,6aS)-5-(5-chloro-2-((1-methyl-1H-pyrazol-4-yl)amino)pyrimidin-4-yl)hexahydropyrrolo[3,4-c]pyrrol-2(1H)-yl)((S)-2,2-difluorocyclopropyl)methanone] | 6.07 | 16 nM | 15 nM
7 | C[C@@]12CN(C(=O)C3CC3)C[C@]1(C)CN(c1nc(Nc3cnn(C(F)F)c3)ncc1Cl)C2 [Compound 30, ((3aR,6aS)-5-(5-chloro-2-((1-(difluoromethyl)-1H-pyrazol-4-yl)amino)pyrimidin-4-yl)-3a,6a-dimethylhexahydropyrrolo[3,4-c]pyrrol-2(1H)-yl)(cyclopropyl)methanone] | 5.92 | 1.4 nM | 4.6 nM
8 | C[C@@]12CN(C(=O)CC#N)C[C@]1(C)CN(c1nc(Nc3cnn(CCO)c3)ncc1Cl)C2 [Compound 31, 3-((3aR,6aS)-5-(5-chloro-2-((1-(2-hydroxyethyl)-1H-pyrazol-4-yl)amino)pyrimidin-4-yl)-3a,6a-dimethylhexahydropyrrolo[3,4-c]pyrrol-2(1H)-yl)-3-oxopropanenitrile] | 5.56 | 0.5 nM | 0.4 nM

The remaining compounds from weak to strong by pIC50 [1], led by results:

Row | pIC50 [1] | IC50 [2] | IC50 [3] | SMILES
9 | 5.66 | 0.2 nM | 0.4 nM | C[C@@]12CN(C(=O)CC#N)C[C@]1(C)CN(c1nc(Nc3cn[nH]c3)ncc1Cl)C2 [Compound 28, 3-((3aR,6aS)-5-(2-((1H-pyrazol-4-yl)amino)-5-chloropyrimidin-4-yl)-3a,6a-dimethylhexahydropyrrolo[3,4-c]pyrrol-2(1H)-yl)-3-oxopropanenitrile]
10 | 5.98 | 1.6 nM | 3.2 nM | C[C@@H](O)Cn1cc(Nc2ncc(Cl)c(N3C[C@]4(C)CN(C(=O)C5CC5)C[C@]4(C)C3)n2)cn1 [Compound 17, ((3aR,6aS)-5-(5-chloro-2-((1-((R)-2-hydroxypropyl)-1H-pyrazol-4-yl)amino)pyrimidin-4-yl)-3a,6a-dimethylhexahydropyrrolo[3,4-c]pyrrol-2(1H)-yl)(cyclopropyl)methanone]
11 | 6.18 | 0.5 nM | 1 nM | C[C@@]12CN(C(=O)C3CC3)C[C@]1(C)CN(c1nc(Nc3cnn(CCO)c3)ncc1Cl)C2 [Compound 32]
12 | 6.21 | 1.6 nM | 3.5 nM | C[C@H](O)Cn1cc(Nc2ncc(Cl)c(N3C[C@]4(C)CN(C(=O)C5CC5)C[C@]4(C)C3)n2)cn1 [Compound 18]
13 | 6.40 | 0.3 nM | 0.9 nM | Cn1cc(Nc2ncc(Cl)c(N3C[C@]4(C)CN(c5ccncn5)C[C@]4(C)C3)n2)cn1 [Compound 25, 5-chloro-4-((3aR,6aS)-3a,6a-dimethyl-5-(pyrimidin-4-yl)hexahydropyrrolo[3,4-c]pyrrol-2(1H)-yl)-N-(1-methyl-1H-pyrazol-4-yl)pyrimidin-2-amine]
14 | 6.42 | 0.4 nM | 0.5 nM | C[C@@]12CN(C(=O)[C@@H]3CC3(F)F)C[C@]1(C)CN(c1nc(Nc3cn[nH]c3)ncc1Cl)C2 [Compound 29, ((3aR,6aS)-5-(2((1H-pyrazol-4-yl)amino)-5-chloropyrimidin-4-yl)-3a,6a-dimethylhexahydropyrrolo[3,4-c]pyrrol-2(1H)-yl)((S)-2,2-difluorocyclopropyl)methanone]
15 | 6.52 | 0.8 nM | 1.4 nM | Cn1cc(Nc2ncc(Cl)c(N3C[C@]4(C)CN(C(=O)[C@@H]5CC5(F)F)C[C@]4(C)C3)n2)cn1 [Compound 22, ((3aR,6aS)-5-(5-chloro-2-((1-methyl-1H-pyrazol-4-yl)amino)pyrimidin-4-yl)-3a,6a-dimethylhexahydropyrrolo[3,4-c]pyrrol-2(1H)-yl)((S)-2,2-difluorocyclopropyl)methanone]
16 | 6.63 | 0.5 nM | 1.2 nM | Cn1cc(Nc2ncc(Cl)c(N3C[C@]4(C)CN(C(=O)CC#N)C[C@]4(C)C3)n2)cn1 [Compound 20, 3-((3aR,6aS)-5-(5-chloro-2-((1-methyl-1H-pyrazol-4-yl)amino)pyrimidin-4-yl)-3a,6a-dimethylhexahydropyrrolo[3,4-c]pyrrol-2(1H)-yl)-3-oxopropanenittile]
17 | 6.67 | 2.9 nM | 6.2 nM | C[C@@]12CN(C(=O)C3CC3)C[C@]1(C)CN(c1nc(Nc3cnn(CC#N)c3)ncc1Cl)C2 [Compound 33, 2-(4-((5-chloro-4-((3aR,6aS)-5-(cyclopropanecarbonyl)-3a,6a-dimethylhexahydropyrrolo[3,4-c]pyrrol-2(1H)-yl)pyrimidin-2-yl)arnino)-1H-pyrazol-1-yl)acetonitrile]

— patent US12448382B2, “Heterocyclic compounds for mediating tyrosine kinase 2 activity” (GUANGZHOU INNOCARE PHARMA TECH CO., LTD., priority 2019, dated 2025)
